Holding throughout (format): biochemical
The target of one assay is T1, human factor VIIa (Homo sapiens, UniProt P08709).
T1 construct: 50 nM human factor VIIa (BiosPacific, Emeryville, Calif.); purchased BiosPacific, Emeryville, Calif
T1 sequence (P08709 213-466 limits assumed): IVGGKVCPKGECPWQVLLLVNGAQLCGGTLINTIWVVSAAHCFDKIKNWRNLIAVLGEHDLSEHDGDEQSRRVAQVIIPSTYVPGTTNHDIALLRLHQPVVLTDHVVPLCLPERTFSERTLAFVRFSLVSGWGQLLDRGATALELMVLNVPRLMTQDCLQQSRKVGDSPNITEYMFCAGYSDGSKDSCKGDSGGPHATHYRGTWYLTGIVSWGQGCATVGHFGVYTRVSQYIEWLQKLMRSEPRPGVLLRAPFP
T1 sequence (P08709 61-212 partner limits assumed): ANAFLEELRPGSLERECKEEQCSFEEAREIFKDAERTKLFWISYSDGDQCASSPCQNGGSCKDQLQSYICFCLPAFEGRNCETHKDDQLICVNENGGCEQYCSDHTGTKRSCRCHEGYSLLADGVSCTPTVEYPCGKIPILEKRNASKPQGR
Description: Inhibition of Factor VIIa hydrolysis of chromogenic substrate S2288 (Ki). The settings on record: purified human factor VIIa, 0.05 M tris buffer; for Ki: pH 7.6, read-out: Ki values for inhibition of Serine Proteases: Factor VIIa; for Ki values for inhibition of Serine Proteases: Factor VIIa: pH 7.6. The protocol:
(§1) The effectiveness of compounds of the present invention as inhibitors of blood coagulation proteases was determined using purified human proteases and synthetic substrates following procedures similar to those described in Kettner et al. (1990).
(§2) For these assays, the rate of enzymatic (thrombin, Factor Xa, and Factor VIIa) hydrolysis of chromogenic substrates (S2238 (H-D-Phe-Pip-Arg-pNA), S2222, and S2288, respectively; Kabi Pharmacia, Franklin, Ohio) was measured both in the absence and presence of compounds of the present invention. […] A decrease in the rate of absorbance change at 405 nm in the presence of inhibitor is indicative of enzyme inhibition. The results of this assay are expressed as inhibitory constant, Ki.
(§3) Thrombin and Xa determinations were made in 0.10 M sodium phosphate buffer, pH 7.5, containing 0.20 M NaCl, and 0.5% PEG 8000. VIIa determinations were made in 0.05 M tris buffer, pH 7.6, containing 0.10 M NaCl, 4 mM CaCl2, and 0.1% bovine serum albumin.
(§4) Reactions were allowed to go for 30 minutes and the velocities (rate of absorbance change vs time) were measured in the time frame of 25-30 minutes. The following relationship was used to calculate Ki values. [formula] where: vo is the velocity of the control in the absence of inhibitor;
(§5) vs is the velocity in the presence of inhibitor;
(§6) I is the concentration of inhibitor;
(§7) Ki is the dissociation constant of the enzyme: inhibitor complex;
(§8) S is the concentration of substrate;
(§9) Km is the Michaelis constant.

A further assay deals with T2, human factor Xa (Homo sapiens, UniProt P00742).
T2 construct: 0.2-0.5 nM human thrombin or human factor Xa; purchased Enzyme Research Laboratories, South Bend, Ind
Briefly: Inhibition of Factor Xa hydrolysis of chromogenic substrate S2222 (Ki). Conditions: purified human factor Xa, 0.10 M sodium phosphate buffer. The protocol: as §1, §2, §3, §4, §5, §6, §7, §8, §9

The target in another assay is human thrombin (Homo sapiens, UniProt P00734). Description: Inhibition of thrombin hydrolysis of chromogenic substrate S2238 (Ki). On the set-up: 0.2-0.5 nM human thrombin or human factor Xa; purchased Enzyme Research Laboratories, South Bend, Ind. Conditions: purified human thrombin, 0.10 M sodium phosphate buffer, pH 7.5, read-out: Ki values for inhibition of Serine Proteases: Trombin. The protocol:
as §1, §2, §3, §4, §5, §6, §7, §8, §9

The mark [1] stands for this setting: pH 7.5, read-out: Ki values for inhibition of Serine Proteases: Factor Xa.

Structures can show the parent of a compound that is named as a salt. Where two headings read alike, the source gives them in different places.

T2 sequence (P00742 235-488 limits assumed): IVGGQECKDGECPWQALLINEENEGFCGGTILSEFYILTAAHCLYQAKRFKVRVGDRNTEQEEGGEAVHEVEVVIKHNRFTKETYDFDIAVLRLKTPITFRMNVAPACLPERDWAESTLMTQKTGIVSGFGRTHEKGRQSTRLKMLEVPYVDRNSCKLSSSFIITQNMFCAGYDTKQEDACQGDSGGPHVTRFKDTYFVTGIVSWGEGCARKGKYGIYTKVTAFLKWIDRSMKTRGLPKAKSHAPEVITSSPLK
T2 sequence (P00742 41-179 partner limits assumed): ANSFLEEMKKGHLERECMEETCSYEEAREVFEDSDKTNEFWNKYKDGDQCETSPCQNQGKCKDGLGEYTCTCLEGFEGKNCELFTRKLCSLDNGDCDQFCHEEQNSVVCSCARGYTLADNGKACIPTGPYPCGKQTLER

As usually defined, the Ki is a dissociation constant, usually derived from enzyme kinetics or from competition with a known ligand. Turning to `CC(C)(CN(CC(=O)NC(CCCCN)B(O)O)C(=O)CCc1ccccc1)c1ccccc1` (stereo not drawn) [Example 59.1.1, Hydrocinnamoyl-[N-(2,2-(Dimethyl)-Phenethyl)-Gly]-boroLys--OH HCl], the Ki is below 500 nM at human factor VIIa; below 50000 nM on human factor Xa (pH 7.5, HCl, read-out: Ki values for inhibition of Serine Proteases: Factor Xa); below 500 nM at human thrombin.
Take `NCCCCC(NC(=O)CN(CCc1cccc(C(F)(F)F)c1)C(=O)CCc1ccccc1)B(O)O` (stereo not drawn) [Example 52.1.1, Hydrocinnamoyl-[N-(3-(Trifluoromethyl)-Phenethyl)-Gly]-boroLys--OH HCl]: the figures for the Ki at human factor VIIa, on human factor Xa (setting [1]) and at human thrombin were below 50000 nM, below 500 nM and below 500 nM, respectively.
In the case of “Hydrocinnamoyl-Sar-Lys[C(O)CO2 H] [Example 61.1.1]”, the inhibition constant Ki on human factor VIIa is below 50000 nM; on human factor Xa (setting [1]), below 50000 nM; at human thrombin it was below 500 nM.
On to `CC(C)(CN(CC(=O)NC(CCCNC(=N)N)B(O)O)C(=O)CCc1ccccc1)c1ccccc1` (stereo not drawn) [Example 55.1.1, Hydrocinnamoyl-[N-(2,2-(Dimethyl)-Phenethyl)-Gly]-boroArg--OH HCl], for which the inhibition constant Ki on human factor VIIa, on human factor Xa (setting [1]) and on human thrombin was below 500 nM each time.
Take “Hydrocinnamoyl-[N-(N-(Methyl)-Benzyl)-Gly]-boroLys--OH HCl [Example 53.2.2]”: the inhibitory constant (Ki) at human factor VIIa, on human factor Xa (setting [1]) and on human thrombin was below 500 nM throughout.
On to “(2-(2-Cyano)-Thiophenyl)-Benzoyl-Sar-boroOrn(CH=NH)-C10H16 HCl [Example 62.4.1]”, for which the Ki at human factor VIIa, at human factor Xa (setting [1]) and on human thrombin was below 500 nM each time.
`CN(CC(=O)NC(CCCN=[N+]=[N-])B1OC2CC3CC(C3(C)C)C2(C)O1)C(=O)c1ccccc1Sc1ccccc1C#N` (stereo not drawn) [Example 62.2.1]: the inhibitory constant (Ki) at human factor VIIa, on human factor Xa (setting [1]) and on human thrombin was below 50000 nM in each case.
Turning to `CN(CC(=O)NC(CCCCBr)B1OC2CC3CC(C3(C)C)C2(C)O1)C(=O)c1ccccc1Sc1ccccc1C#N` (stereo not drawn) [Example 62.1.2], the Ki at human factor VIIa, on human factor Xa (setting [1]) and at human thrombin was below 50000 nM each time.
Take `CN(CC(=O)NC(CCCNC(=N)N)B1OC2CC3CC(C3(C)C)C2(C)O1)C(=O)c1ccccc1Sc1ccccc1C#N` (stereo not drawn) [Example 62.3.3, 2-(2-cyanothiophenyl)-benzoyl-Sar-BoroArg C10 H16.HCl]: the inhibition constant (Ki) on human factor VIIa, on human factor Xa (setting [1]) and on human thrombin was below 500 nM throughout.
As for “(2-(2-Cyano)-Thiophenyl)-Benzoyl-Sar-boroLys(CH=NH)-C10H16 HCl [Example 62.4.2]”, the values for the Ki on human factor VIIa, at human factor Xa (setting [1]) and on human thrombin were below 50000 nM, below 500 nM and below 500 nM, respectively.
Consider “[3-(Trifluoromethyl)-Benzyl]-Benzoyl-Sar-boroLys-C10H16 HCl [Example 64.2.2]”, for which the Ki on human factor VIIa was below 50000 nM; at human factor Xa (setting [1]), below 500 nM; at human thrombin, below 500 nM.
Turning to `CCC(CC)(CN(CC(=O)NC(CCCCN)B1OC2CC3CC(C3(C)C)C2(C)O1)C(=O)CCc1ccccc1)c1ccccc1` (stereo not drawn) [Example 54.1.3, Hydrocinnamoyl-[N-(2,2-(Diethyl)-Phenethyl)-Gly]-boroLys-C10H16 HCl], the Ki on human factor VIIa was below 500 nM; on human factor Xa (setting [1]) it was below 50000 nM; at human thrombin, below 500 nM.
In the case of `CN(CC(=O)NC(CO)CCCCNC(=O)OCc1ccccc1)C(=O)CCc1ccccc1` (stereo not drawn) [Example 61.3.2, Hydrocinnamoyl-Sar-NHCH(CH20H)(CH2)4--NH(Z)], the “Ki values for inhibition of Serine Proteases: Factor VIIa” value at human factor VIIa is “Inactive”. Also, on human factor Xa (pH 7.5), the “Ki values for inhibition of Serine Proteases: Factor Xa” value is recorded as “Inactive”. Also, the Ki on human thrombin is below 50000 nM.
In the case of `CC1(C)C2CC3OB(C(CCCCN)NC(=O)CN(CCc4ccccc4C4CCCC4)C(=O)CCc4ccccc4)OC3(C)C1C2` (stereo not drawn) [Example 54.3.2, Hydrocinnamoyl-[N-(2-(Cyclopentyl)-Phenethyl)-Gly]-boroLys-C10H16 HCl], the Ki at human factor VIIa was below 500 nM; on human factor Xa (setting [1]) it was below 50000 nM; at human thrombin it was below 500 nM.
With `CN(CC(=O)NC(CCCCSC(=N)N)B1OC2CC3CC(C3(C)C)C2(C)O1)C(=O)c1ccccc1Sc1ccccc1C#N` (stereo not drawn) [Example 62.2.2, (2-(2-Cyano)-Thiophenyl)-Benzoyl-Sar-borohomoIrg-C10H16 HBr], the Ki is below 50000 nM at human factor VIIa, below 500 nM on human factor Xa (setting [1]) and below 500 nM at human thrombin.
As to `NCCCCC(NC(=O)CN(C(=O)CCc1ccccc1)C1CCCCC1)B(O)O` (stereo not drawn) [Example 53.4.3, Hydrocinnamoyl-[N-(Cyclohexyl)-Gly]-boroLys--OH HCl], the Ki on human factor VIIa is below 500 nM; at human factor Xa (setting [1]), below 50000 nM; at human thrombin it was below 500 nM.
Regarding `CC1(C)C2CC3OB(C(CCCNC(=N)N)NC(=O)CN(CCc4ccccc4C4CC4)C(=O)CCc4ccccc4)OC3(C)C1C2` (stereo not drawn) [Example 56.1.2, Hydrocinnamoyl-[N-(2-(Cyclopropyl)-Phenethyl)--Gly]-boroArg-C10H16 HCl], the Ki at human factor VIIa, at human factor Xa (setting [1]) and on human thrombin was below 500 nM in each case.
In the case of `CC1(C)C2CC3OB(C(CCCN)NC(=O)CN(CCc4ccccc4)C(=O)CCc4ccccc4)OC3(C)C1C2.Cl` (stereo not drawn) [Example 49.1.1, Hydrocinnamoyl-[N-(Phenethyl)-Gly]-boroOrn-C10H16HCl], the “Ki values for inhibition of Serine Proteases: Factor VIIa” value at human factor VIIa was “inactive”. Also, the values for the inhibitory constant (Ki) at human factor Xa (setting [1]) and at human thrombin were below 50000 nM and below 500 nM, respectively.
For the molecule `CC(C)(CN(CC(=O)NC(CCCN)B1OC2CC3CC(C3(C)C)C2(C)O1)C(=O)CCc1ccccc1)c1ccccc1` (stereo not drawn) [Example 60.3.3, Hydrocinnamoyl-[N-(2,2-(Dimethyl)-Phenethyl)-Gly]-boroOrn-C10H16 HCl], the Ki at human factor VIIa was below 50000 nM; at human factor Xa (setting [1]), below 50000 nM; at human thrombin, below 500 nM.
Regarding `CN(CC(=O)NC(CCCSC(=N)N)B1OC2CC3CC(C3(C)C)C2(C)O1)C(=O)c1ccccc1Sc1ccccc1C#N` (stereo not drawn) [Example 62.1.3, (2-(2-Cyano)-Thiophenyl)-Benzoyl-Sar-boroIrg-C10H16 HBr], the inhibition constant (Ki) at human factor VIIa, at human factor Xa (setting [1]) and at human thrombin was below 500 nM in each case.
In the case of “Hydrocinnamoyl-Sar-Lys--C(=O)--OCH3 HCl [Example 61.2.1]”, the Ki at human factor VIIa, on human factor Xa (setting [1]) and at human thrombin was below 50000 nM each time.
With `COC(=O)CCCC(=O)N(CCc1ccccc1)CC(=O)NC(CCCCN)B1OC2CC3CC(C3(C)C)C2(C)O1` (stereo not drawn) [Example 69.4.1, Methyl Glutaryl-[N-(Phenethyl)-Gly]-boroLys-C10H16 HCl], the Ki at human factor VIIa is below 50000 nM; on human factor Xa (setting [1]) it was below 50000 nM; at human thrombin, below 500 nM.
For the molecule `Cc1cc(C)cc(CCN(CC(=O)NC(CCCN)B2OC3CC4CC(C4(C)C)C3(C)O2)C(=O)CCc2ccccc2)c1` (stereo not drawn) [Example 60.4.1, Hydrocinnamoyl-{N-[2-(3,5-dimethylphenyl)-ethyl]-Gly}-boroOrn-C10H16 HCl], the inhibitory constant (Ki) at human factor VIIa was below 50000 nM; at human factor Xa (setting [1]), below 50000 nM; on human thrombin, below 500 nM.
Consider `CC(C)(CN(CC(=O)NC(CCCNC(=N)N)B1OC2CC3CC(C3(C)C)C2(C)O1)C(=O)CCc1ccccc1)c1ccccc1` (stereo not drawn) [Example 56.1.1, Hydrocinnamoyl-[N-(2,2-(Dimethyl)-Phenethyl)-Gly]-boroArg-C10H16 HCl], for which the Ki at human factor VIIa, on human factor Xa (setting [1]) and at human thrombin was below 500 nM throughout.
Regarding `NCCCCC(NC(=O)CN(CCc1ccccc1)C(=O)CCC(=O)O)B(O)O` (stereo not drawn) [Example 68.3.1, Succinyl-[N-(Phenethyl)-Gly]-boroLys--OH], the Ki was below 50000 nM on human factor VIIa, below 50000 nM at human factor Xa (setting [1]) and below 500 nM on human thrombin.
Regarding `CC(C)(C)OC(=O)NC(CCC(=O)O)C(=O)N(CCc1ccccc1)CC(=O)NC(CCCCN)B(O)O` (stereo not drawn) [Example 68.2.1, Boc-Glu-[N-(Phenethyl)-Gly]-boroLys--OH], the inhibition constant Ki is below 50000 nM at human factor VIIa, below 50000 nM on human factor Xa (setting [1]) and below 500 nM on human thrombin.

Values taken from US6060462A, “Electrophilic peptide analogs as inhibitors of trypsin-like enzymes” (DuPont Pharmaceuticals Company, priority 1997, dated 2000).
